Assays:
Assay in all cases: Kinase assay, binding constants (Kd), kinase-tagged T7 phage, qPCR
FGFR2 = FGFR2 (Homo sapiens (Human), UniProt P21802)
Procedure, shortened: (§1)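 Kinase-tagged T7 phage (grown in BL21-derived E. coli) competed with test compound for immobilized biotinylated ligand on streptavidin beads. Kds came from an 11-point 3-fold dilution series at 0.9% final DMSO. Bound kinase was eluted with non-biotinylated ligand and quantified by qPCR, with Hill slope fixed at −1.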

FGFR4 = FGFR4 (Homo sapiens (Human), UniProt P22455)
FGFR4, sequence (P22455 22-802): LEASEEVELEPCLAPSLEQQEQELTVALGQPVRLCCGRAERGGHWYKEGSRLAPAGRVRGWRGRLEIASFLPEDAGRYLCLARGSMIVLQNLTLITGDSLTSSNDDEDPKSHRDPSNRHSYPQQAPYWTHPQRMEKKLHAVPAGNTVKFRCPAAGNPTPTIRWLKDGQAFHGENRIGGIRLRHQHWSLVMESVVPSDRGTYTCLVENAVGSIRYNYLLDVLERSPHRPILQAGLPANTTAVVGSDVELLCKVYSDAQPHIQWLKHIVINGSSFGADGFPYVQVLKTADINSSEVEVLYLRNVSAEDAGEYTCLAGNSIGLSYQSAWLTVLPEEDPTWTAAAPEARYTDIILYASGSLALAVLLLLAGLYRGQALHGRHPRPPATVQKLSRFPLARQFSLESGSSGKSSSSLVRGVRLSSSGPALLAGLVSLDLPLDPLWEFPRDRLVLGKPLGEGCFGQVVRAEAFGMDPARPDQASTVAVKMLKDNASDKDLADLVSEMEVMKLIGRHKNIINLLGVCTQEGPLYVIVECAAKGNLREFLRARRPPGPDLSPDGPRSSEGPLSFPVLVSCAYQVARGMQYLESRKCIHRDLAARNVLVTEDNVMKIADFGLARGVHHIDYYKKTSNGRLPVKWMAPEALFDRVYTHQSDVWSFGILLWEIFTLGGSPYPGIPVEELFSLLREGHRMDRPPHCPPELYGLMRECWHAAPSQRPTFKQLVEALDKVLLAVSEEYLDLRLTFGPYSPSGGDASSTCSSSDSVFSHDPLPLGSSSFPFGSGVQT
Procedure, shortened: as §1

FGFR1 = FGFR1 (Homo sapiens (Human), UniProt P11362)
FGFR1, sequence (P11362 22-822): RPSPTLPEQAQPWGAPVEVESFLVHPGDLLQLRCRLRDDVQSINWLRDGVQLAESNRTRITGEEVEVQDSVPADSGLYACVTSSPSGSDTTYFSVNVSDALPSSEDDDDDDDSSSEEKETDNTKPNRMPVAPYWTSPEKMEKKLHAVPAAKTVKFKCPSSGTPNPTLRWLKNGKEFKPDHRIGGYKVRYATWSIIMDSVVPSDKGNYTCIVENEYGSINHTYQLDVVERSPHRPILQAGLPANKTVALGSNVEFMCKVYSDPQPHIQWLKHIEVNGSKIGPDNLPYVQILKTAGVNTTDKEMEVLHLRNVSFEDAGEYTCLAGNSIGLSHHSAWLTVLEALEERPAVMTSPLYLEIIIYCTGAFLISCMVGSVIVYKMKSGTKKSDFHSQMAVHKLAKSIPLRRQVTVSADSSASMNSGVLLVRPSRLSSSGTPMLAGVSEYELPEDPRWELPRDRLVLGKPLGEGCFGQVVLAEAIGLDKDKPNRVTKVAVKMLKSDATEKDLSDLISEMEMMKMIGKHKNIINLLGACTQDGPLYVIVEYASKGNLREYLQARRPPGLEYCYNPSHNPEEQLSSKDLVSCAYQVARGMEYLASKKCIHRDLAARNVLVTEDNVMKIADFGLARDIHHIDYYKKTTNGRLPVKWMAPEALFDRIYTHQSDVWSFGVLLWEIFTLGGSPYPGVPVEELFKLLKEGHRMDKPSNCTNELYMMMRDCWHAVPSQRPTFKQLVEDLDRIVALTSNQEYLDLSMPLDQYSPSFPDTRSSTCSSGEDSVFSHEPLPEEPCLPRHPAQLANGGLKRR
Procedure, shortened: as §1

FGFR3 (V555M) = FGFR3 (V555M) (Homo sapiens (Human), UniProt P22607, V555M); conditions: V555M mutant
FGFR3 (V555M), sequence (P22607 23-806 V555M): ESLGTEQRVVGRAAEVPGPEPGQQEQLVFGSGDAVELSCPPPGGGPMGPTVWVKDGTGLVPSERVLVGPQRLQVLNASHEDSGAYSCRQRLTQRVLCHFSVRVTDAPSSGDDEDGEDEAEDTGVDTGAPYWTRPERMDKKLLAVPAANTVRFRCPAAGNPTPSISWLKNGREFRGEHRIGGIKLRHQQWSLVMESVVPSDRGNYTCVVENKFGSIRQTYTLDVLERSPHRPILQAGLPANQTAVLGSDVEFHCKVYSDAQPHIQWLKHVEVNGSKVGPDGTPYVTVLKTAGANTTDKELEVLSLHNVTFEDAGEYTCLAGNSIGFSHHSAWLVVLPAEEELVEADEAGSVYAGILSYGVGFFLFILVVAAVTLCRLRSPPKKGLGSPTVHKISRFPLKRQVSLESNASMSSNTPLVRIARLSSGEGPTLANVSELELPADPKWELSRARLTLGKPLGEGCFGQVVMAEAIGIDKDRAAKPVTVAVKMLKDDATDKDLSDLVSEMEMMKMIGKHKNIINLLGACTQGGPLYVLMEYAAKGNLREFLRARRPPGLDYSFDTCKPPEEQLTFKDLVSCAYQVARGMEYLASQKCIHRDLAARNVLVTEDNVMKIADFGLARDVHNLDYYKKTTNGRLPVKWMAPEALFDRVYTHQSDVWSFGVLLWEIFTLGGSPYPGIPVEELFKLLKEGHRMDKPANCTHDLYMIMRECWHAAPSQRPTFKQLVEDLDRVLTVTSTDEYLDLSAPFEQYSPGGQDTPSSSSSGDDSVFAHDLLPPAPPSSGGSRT
Procedure, shortened: as §1

FGFR3 = FGFR3 (Homo sapiens (Human), UniProt P22607)
FGFR3, sequence (P22607 23-806): as the sequence (P22607 23-806 V555M) above, with M533V counted along it
Procedure, shortened: as §1

FGFR2, sequence (P21802 22-821): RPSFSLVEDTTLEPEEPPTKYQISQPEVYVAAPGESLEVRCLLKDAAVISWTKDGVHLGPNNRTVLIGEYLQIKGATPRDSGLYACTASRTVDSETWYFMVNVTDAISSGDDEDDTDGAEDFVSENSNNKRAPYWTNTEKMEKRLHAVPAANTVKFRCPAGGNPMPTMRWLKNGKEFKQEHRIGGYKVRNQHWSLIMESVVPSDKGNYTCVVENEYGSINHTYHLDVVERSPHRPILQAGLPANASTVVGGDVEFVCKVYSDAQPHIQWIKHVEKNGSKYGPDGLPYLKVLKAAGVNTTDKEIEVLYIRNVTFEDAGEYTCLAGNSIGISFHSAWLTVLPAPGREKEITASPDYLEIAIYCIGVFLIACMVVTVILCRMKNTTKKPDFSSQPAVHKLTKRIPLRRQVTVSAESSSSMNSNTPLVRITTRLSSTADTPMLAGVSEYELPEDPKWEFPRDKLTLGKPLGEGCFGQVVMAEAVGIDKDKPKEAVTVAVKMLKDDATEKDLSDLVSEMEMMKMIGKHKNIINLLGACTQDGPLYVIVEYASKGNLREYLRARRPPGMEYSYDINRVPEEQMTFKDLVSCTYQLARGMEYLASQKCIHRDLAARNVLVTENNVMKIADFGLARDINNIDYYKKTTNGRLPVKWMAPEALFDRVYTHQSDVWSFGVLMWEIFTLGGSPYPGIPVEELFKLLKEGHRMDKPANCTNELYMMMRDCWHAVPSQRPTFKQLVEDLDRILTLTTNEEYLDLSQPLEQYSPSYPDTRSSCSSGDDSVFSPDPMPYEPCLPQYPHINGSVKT

Compound	Kd (FGFR2)	Kd (FGFR4)	Kd (FGFR1)	Kd (FGFR3 (V555M))	Kd (FGFR3)
C[C@@H](Oc1ccc2[nH]nc(-c3cnc(N4CC[C@H](O)C4)c(C#N)c3)c2c1)c1c(Cl)cnc(F)c1Cl [Example 288, 5-(5-((R)-1-(3,5-dichloro-2-fluoropyridin-4-yl)ethoxy)-1H-indazol-3-yl)-2-((S)-3-hydroxypyrrolidin-1-yl)nicotinonitrile]	> 300 nM	1 to 20 nM	> 300 nM	20 to 100 nM	20 to 100 nM
C[C@H](Oc1ccc2[nH]nc(-c3cnc(N4CC(O)C4)c(C#N)c3)c2c1)c1c(Cl)cnc(F)c1Cl [Example 291, (S)-5-(5-(1-(3,5-dichloro-2-fluoropyridin-4-yl)ethoxy)-1H-indazol-3-yl)-2-(3-hydroxyazetidin-1-yl)nicotinonitrile]	> 300 nM	> 300 nM	> 300 nM	> 300 nM	> 300 nM
C[C@@H](Oc1ccc2[nH]nc(-c3cnc(N4CCCC4)c(C#N)c3)c2c1)c1c(Cl)cnc(F)c1Cl [Example 292, (R)-5-(5-(1-(3,5-dichloro-2-fluoropyridin-4-yl)ethoxy)-1H-indazol-3-yl)-2-(pyrrolidin-1-yl)nicotinonitrile]	> 300 nM	100 to 300 nM	> 300 nM	> 300 nM	> 300 nM
C[C@@H](Oc1ccc2[nH]nc(-c3cnc(N4CC[C@H](O)C4)c(C#N)c3)c2c1)c1c(Cl)cncc1Cl [Example 293, 5-[5-[(1R)-1-(3,5-dichloro-4-pyridyl)ethoxy]-1H-indazol-3-yl]-2-[(3S)-3-hydroxypyrrolidin-1-yl]pyridine-3-carbonitrile]	20 to 100 nM	1 to 20 nM	20 to 100 nM	1 to 20 nM	1 to 20 nM
C[C@@H](Oc1ccc2[nH]nc(-c3cnc(N4CC[C@@H](C(C)(C)O)C4)c(C#N)c3)c2c1)c1c(Cl)cncc1Cl [Example 294, 5-[5-[(1R)-1-(3,5-dichloro-4-pyridyl)ethoxy]-1H-indazol-3-yl]-2-[(3R)-3-(1-hydroxy-1-methyl-ethyl)pyrrolidin-1-yl]pyridine-3-carbonitrile]	> 300 nM	20 to 100 nM	> 300 nM	20 to 100 nM	100 to 300 nM
Cc1ncc(Cl)c([C@@H](C)Oc2ccc3[nH]nc(-c4cnc(N5CC(CC(F)(F)F)C5)c(C#N)c4)c3c2)c1Cl [Example 295, 5-[5-[(1R)-1-(3,5-dichloro-2-methyl-4-pyridyl)ethoxy]-1H-indazol-3-yl]-2-[3-(2,2,2-trifluoroethyl)azetidin-1-yl]pyridine-3-carbonitrile]	> 300 nM	20 to 100 nM	> 300 nM	100 to 300 nM	> 300 nM
C[C@@H](Oc1ccc2[nH]nc(-c3cnc(N4CC(CC(F)(F)F)C4)c(C#N)c3)c2c1)c1c(Cl)cncc1Cl [Example 296, 5-[5-[(1R)-1-(3,5-dichloro-4-pyridyl)ethoxy]-1H-indazol-3-yl]-2-[3-(2,2,2-trifluoroethyl)azetidin-1-yl]pyridine-3-carbonitrile]	> 300 nM	20 to 100 nM	> 300 nM	100 to 300 nM	> 300 nM
C[C@@H](Oc1ccc2[nH]nc(-c3cnc(N4CC[C@@H](O)C4)c(C#N)c3)c2c1)c1c(Cl)cncc1Cl [Example 297, 5-[5-[(1R)-1-(3,5-dichloro-4-pyridyl)ethoxy]-1H-indazol-3-yl]-2-[(3R)-3-hydroxypyrrolidin-1-yl]pyridine-3-carbonitrile]	100 to 300 nM	1 to 20 nM	20 to 100 nM	1 to 20 nM	1 to 20 nM
C[C@@H](Oc1ccc2[nH]nc(-c3cnc(N4CCC(O)CC4)c(C#N)c3)c2c1)c1c(Cl)cncc1Cl [Example 298, 5-[5-[(1R)-1-(3,5-dichloro-4-pyridyl)ethoxy]-1H-indazol-3-yl]-2-(4-hydroxy-1-piperidyl)pyridine-3-carbonitrile]	20 to 100 nM	1 to 20 nM	20 to 100 nM	1 to 20 nM	1 to 20 nM
Cc1cnnc(C)c1[C@@H](C)Oc1ccc2[nH]nc(-c3cnc(N4CC5CC(C4)N5)c(C#N)c3)c2c1 [Example 299, 2-(3,6-diazabicyclo[3.1.1]heptan-3-yl)-5-(5-((R)-1-(3,5-dimethylpyridazin-4-yl)ethoxy)-1H-indazol-3-yl)nicotinonitrile]	20 to 100 nM	1 to 20 nM	20 to 100 nM	1 to 20 nM	1 to 20 nM
COc1cc(-c2n[nH]c3ccc(O[C@H](C)c4c(C)cnnc4C)cc23)cnc1N1CC2CC(C1)N2 [Example 300, 3-(5-(5-((R)-1-(3,5-dimethylpyridazin-4-yl)ethoxy)-1H-indazol-3-yl)-3-methoxypyridin-2-yl)-3,6-diazabicyclo[3.1.1]heptane]	100 to 300 nM	20 to 100 nM	100 to 300 nM	20 to 100 nM	20 to 100 nM
Cc1cnnc(C)c1[C@@H](C)Oc1ccc2[nH]nc(-c3cnc(N4CC[C@H](C(C)(C)O)C4)c(C#N)c3)c2c1 [Example 301, 5-(5-((R)-1-(3,5-dimethylpyridazin-4-yl)ethoxy)-1H-indazol-3-yl)-2-((S)-3-(2-hydroxypropan-2-yl)pyrrolidin-1-yl)nicotinonitrile]	100 to 300 nM	1 to 20 nM	100 to 300 nM	1 to 20 nM	20 to 100 nM
C[C@@H](Oc1ccc2[nH]nc(-c3cnc(N4CC(O)C4)c(C#N)c3)c2c1)c1c(Cl)cncc1Cl [Example 302, 5-[5-[(1R)-1-(3,5-dichloro-4-pyridyl)ethoxy]-1H-indazol-3-yl]-2-(3-hydroxyazetidin-1-yl)pyridine-3-carbonitrile]	100 to 300 nM	1 to 20 nM	100 to 300 nM	1 to 20 nM	20 to 100 nM
C[C@@H](Oc1ccc2[nH]nc(-c3cnc(N4CCC(C(C)(C)O)CC4)c(C#N)c3)c2c1)c1c(Cl)cncc1Cl [Example 303, 5-[5-[(1R)-1-(3,5-dichloro-4-pyridyl)ethoxy]-1H-indazol-3-yl]-2-[4-(1-hydroxy-1-methyl-ethyl)-1-piperidyl]pyridine-3-carbonitrile]	20 to 100 nM	1 to 20 nM	20 to 100 nM	1 to 20 nM	1 to 20 nM
COc1cc(-c2n[nH]c3ccc(O[C@H](C)c4c(C)cnnc4C)cc23)cnc1N1CCC1 [Example 304, (R)-3-(6-(azetidin-1-yl)-5-methoxypyridin-3-yl)-5-(1-(3,5-dimethylpyridazin-4-yl)ethoxy)-1H-indazole]	> 300 nM	1 to 20 nM	> 300 nM	20 to 100 nM	100 to 300 nM
COc1cc(-c2n[nH]c3ccc(O[C@H](C)c4c(C)cnnc4C)cc23)cnc1N1CCCC1 [Example 305, (R)-5-(1-(3,5-dimethylpyridazin-4-yl)ethoxy)-3-(5-methoxy-6-(pyrrolidin-1-yl)pyridin-3-yl)-1H-indazole]	> 300 nM	20 to 100 nM	> 300 nM	100 to 300 nM	> 300 nM
Cc1cnnc(C)c1[C@@H](C)Oc1ccc2[nH]nc(-c3cnc(N4CC[C@H](O)C4)c(C#N)c3)c2c1 [Example 306, 5-(5-((R)-1-(3,5-dimethylpyridazin-4-yl)ethoxy)-1H-indazol-3-yl)-2-((S)-3-hydroxypyrrolidin-1-yl)nicotinonitrile]	20 to 100 nM	1 to 20 nM	100 to 300 nM	1 to 20 nM	20 to 100 nM
Cc1cnnc(C)c1[C@@H](C)Oc1ccc2[nH]nc(-c3cnc(N4CC[C@@H](C(C)(C)O)C4)c(C#N)c3)c2c1 [Example 307, 5-(5-((R)-1-(3,5-dimethylpyridazin-4-yl)ethoxy)-1H-indazol-3-yl)-2-((R)-3-(2-hydroxypropan-2-yl)pyrrolidin-1-yl)nicotinonitrile]	20 to 100 nM	1 to 20 nM	100 to 300 nM	1 to 20 nM	20 to 100 nM
Cc1ncc(Cl)c([C@@H](C)Oc2ccc3[nH]nc(-c4cnc(N5CC(O)C5)c(C#N)c4)c3c2)c1Cl [Example 308, 5-[5-[(1R)-1-(3,5-dichloro-2-methyl-4-pyridyl)ethoxy]-1H-indazol-3-yl]-2-(3-hydroxyazetidin-1-yl)pyridine-3-carbonitrile]	> 300 nM	1 to 20 nM	> 300 nM	20 to 100 nM	100 to 300 nM
C[C@@H](Oc1ccc2[nH]nc(-c3cnc(N4CCC4)c(C#N)c3)c2c1)c1c(Cl)cncc1Cl [Example 309, 2-(azetidin-1-yl)-5-[5-[(1R)-1-(3,5-dichloro-4-pyridyl)ethoxy]-1H-indazol-3-yl]pyridine-3-carbonitrile]	> 300 nM	1 to 20 nM	> 300 nM	20 to 100 nM	100 to 300 nM
COc1cc2[nH]nc(-c3ccc(N4CCC4)nc3)c2cc1O[C@H](C)c1c(C)cnnc1C [Example 310, (R)-3-(6-(azetidin-1-yl)pyridin-3-yl)-5-(1-(3,5-dimethylpyridazin-4-yl)ethoxy)-6-methoxy-1H-indazole]	1 to 20 nM	1 to 20 nM	1 to 20 nM	1 to 20 nM	1 to 20 nM
COc1cc2[nH]nc(-c3cnc(N4CC[C@H](O)C4)c(C#N)c3)c2cc1O[C@H](C)c1c(C)cnnc1C [Example 311, 5-(5-((R)-1-(3,5-dimethylpyridazin-4-yl)ethoxy)-6-methoxy-1H-indazol-3-yl)-2-((S)-3-hydroxypyrrolidin-1-yl)nicotinonitrile]	20 to 100 nM	1 to 20 nM	20 to 100 nM	1 to 20 nM	20 to 100 nM
